Test results: PubChem BioAssay (NCI)
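The compound was tested at five concentrations on cells cultured in 96-well plates, with a 48-hour exposure period. TGI: concentration producing complete growth inhibition.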

Legend:
Assay in all cases: NCI-60 cell line screen, 48 h
HL-60(TB) leukemia = tested on: HL-60(TB) leukemia
IGROV1 ovarian = tested on: IGROV1 ovarian
NCI/ADR-RES ovarian = tested on: NCI/ADR-RES ovarian
CCRF-CEM leukemia = tested on: CCRF-CEM leukemia
SF-539 CNS = tested on: SF-539 CNS
K-562 leukemia = tested on: K-562 leukemia
SR leukemia = tested on: SR leukemia
SK-MEL-28 melanoma = tested on: SK-MEL-28 melanoma
HCC-2998 colon = tested on: HCC-2998 colon
MALME-3M melanoma = tested on: MALME-3M melanoma

Compound | TGI (HL-60(TB) leukemia) | TGI (IGROV1 ovarian) | TGI (NCI/ADR-RES ovarian) | TGI (CCRF-CEM leukemia) | TGI (SF-539 CNS) | TGI (K-562 leukemia) | TGI (SR leukemia) | TGI (SK-MEL-28 melanoma) | TGI (HCC-2998 colon) | TGI (MALME-3M melanoma)
Cc1ccc(C2=NOC(=O)[C@@H]3CCCC[C@@H]23)cc1 | > 100 µM | > 100 µM | > 100 µM | > 100 µM | > 100 µM | > 100 µM | > 100 µM | > 100 µM | > 100 µM | > 100 µM
O=C1C=CC(=O)C(CNc2ccc(C(=O)OC34CC5CC(CC(C5)C3)C4)cc2)=C1 | > 21.6 µM | 4.86 µM | 44.1 µM | > 20.4 µM | 8.89 µM | > 49.3 µM | > 29.3 µM | 17.8 µM | 32.4 µM | 21.4 µM
Cc1cc(=O)n2nc(SCc3ccccc3)sc2n1 | > 100 µM | > 100 µM | > 100 µM | > 100 µM | > 100 µM | > 100 µM | > 100 µM | > 100 µM | > 100 µM | > 100 µM
CCc1c(Cc2cccc3ccccc23)n2c(nc1=O)SCC2OCCO (stereo not given) | > 100 µM | > 100 µM | > 100 µM | 74 µM | > 100 µM | > 100 µM | 89.4 µM | > 100 µM | > 100 µM | > 100 µM
c1ccc(CCN2CCc3[nH]c4ccccc4c3C2)cc1 | 41.7 µM | 67.8 µM | 36.9 µM | > 100 µM | 40 µM | 45.5 µM | 75.7 µM | 41.8 µM | 30.5 µM | 32.8 µM
c1ccc(CCNCc2ccco2)nc1 | > 100 µM | > 100 µM | > 100 µM | > 100 µM | > 100 µM | > 33.6 µM | > 100 µM | > 100 µM | > 100 µM | > 100 µM
Cn1nc2n(c1=O)CCCN2 | > 100 µM | > 100 µM | > 100 µM | > 100 µM | > 100 µM | > 100 µM | > 100 µM | > 100 µM | > 100 µM | > 100 µM
